# Laboratory results reported in patent publication US8617614B2, “Sustained release preparation for tissue regeneration therapy” (Ono Pharmaceutical Co., Ltd., priority 2006, dated 2013).
# Experiments:
# Format in all cases: in vivo
# [1] = tested on: rat common carotid artery occlusion-disobliteration (4-VO) model; assay: Water maze learning ability, rat 4-VO model
# Excerpt: Nine-week-old male Crlj:WI rats were intraperitoneally administered pentobarbital sodium and, while under anesthesia, were secured in the prone position to a brain stereotaxic instrument. An occipital incision was made in the skin and muscle layer of the neck region, the left and right pterygoid foramina of the first cervical vertebra were exposed, and the vertebral arteries were thermocoagulated by inserting the tip of a soldering iron into each pterygoid foramen, thereby permanently occluding the bilateral vertebral arteries. Next, a midline incision was made in the anterior region of the neck, the common carotid arteries on both sides were exposed and detached, a silicone tube was passed under the arteries and placed annularly around the arteries, following which the skin of the neck region was sutured together. On the day after vertebral arterial cauterization, the animals were anesthetized with diethyl ether, then immobilized in the supine position. Both common carotid arteries were exposed using the silicone tube that had been placed on the common carotid arteries in the neck region and were temporarily occluded for 10 minutes with Sugita clips, then reopened. Aside from ischemia and disobliteration, the same procedure was carried out also on a normal group ([…]).
# • Test Group 1: 4-VO+medium, 8 days • Test Group 2: 4-VO+present drug, 10 mg/kg, twice daily, for 8 days • Test Group 3: 4-VO+present drug, 1 mg/kg, twice daily, for 42 days (evaluation of nerve cell number only) (2) Evaluation of number of nerve cells in CA1 region excised from brain (Groups 4 to 7) following measurement of water maze learning ability (Groups 4 to 7) • Test Group 4: normal (sham group)+medium, 42 days (normal control) • Test Group 5: 4-VO+medium, 42 days (solvent control) • Test Group 6: 4-VO+present drug, 10 mg/kg, twice daily for 42 days • Test Group 7: 4-VO+solvent for 8 days+present drug, 10 mg/kg, twice daily, for 34 days (evaluation of regenerative activity) (3) Pathology: Perfusion and fixing of the brain was carried out on day 8 in Test Groups 1 and 2, and on the day after the water maze learning ability test in Groups 4 to 7. The number of nerve cells was then counted by the same method as described above in Test 1. In Test Group 3, after drug administration was stopped, the brains were fixed at the same time as in Test Groups 4 to 7. (4) Measurement of Water Maze Learning Ability
# Using Test Groups […], the […] were investigated with a Morris water maze in such a way as to avoid a bias between the groups.
# A clear acrylic platform (about 12 cm in diameter and about 30 cm in height) which cannot be visually detected and a circular pool (about 148 cm in diameter and about 44 cm in height) made of gray vinyl chloride and filled with water (water temperature, 17 to 18° C.) to a height of about 32 cm so that the platform is hidden by the water were used.
# The pool was divided into four quadrants, the platform was placed at the center of the fourth quadrant (about 36 cm from the center of the pool), and light bulbs were placed at the perimeter of the pool to provide a spatial reference.
# Following the final drug dose, a drug-free period of at least 2 weeks was provided, after which the rat was placed in the pool from one of several points A to E with its head facing the circular pool wall, and the time it took to reach the platform (goal latency; seconds) was measured with a stopwatch (the measurement time was a maximum of 90 seconds). When the rat reached the platform within 90 seconds and remained on the platform for 30 seconds, it was judged to be aware of the platform location and measurement was brought to an end.
# Goal latency measurements were carried out twice daily (once in the morning, and once in the afternoon) on days 1 to 4. The rat was placed in the pool from the various points A to E with its head facing the wall of the circular pool. […]
# [2] = tested on: STZ induced diabetes model; assay: Nephropathy ameliorating action: 24 h urinary excretion, STZ induced diabetes model; conditions: urine, week 12; STZ rat; Test Group 3: 3 mg/kg oral twice daily
# Experimental: Female Sprague-Dawley rats (8- to 11-week-old; Japan SLC, Inc.) were intraperitoneally administered 40 mg/kg of a citrate buffer (pH, approx. 4.5) of streptozotocin (STZ; Sigma). A normal control group was intraperitoneally given only the citrate buffer. Administration was carried out in accordance with the intended route of administration for clinical use. In Test Group 3, forced administration was carried out orally using a disposable syringe barrel and a rat stomach probe. In Test Group 4, intramuscular administration was carried out uniformly at four places within the muscle along the sciatic nerve in the femoral portion of the left leg. For subcutaneous administration in test Group 5, the animals were ether anesthetized, and subcutaneous administration was carried out in the dorsal region using a disposable syringe barrel and a disposable 25 G syringe needle. The volume of solution administered was computed based on the latest body weight. In week 12 from the start of test substance administration, the rats were transferred to a metabolic cage, given water ad libitum, and the urine was collected for 24 hours. […] Using the 7170 Clinical Analyzer (Hitachi, Ltd.), the total urinary protein (pyrogallol red method), creatinine (creatinase/F-DAOS method) and urine sugar were measured.
# [3] = Influence on body weight, STZ induced diabetes model; conditions: STZ rat, Test Group 3: 3 mg/kg oral twice daily
# Experimental: Female Sprague-Dawley rats (8- to 11-week-old; Japan SLC, Inc.) were intraperitoneally administered 40 mg/kg of a citrate buffer (pH, approx. 4.5) of streptozotocin (STZ; Sigma). A normal control group was intraperitoneally given only the citrate buffer.
# Administration was carried out in accordance with the intended route of administration for clinical use. In Test Group 3, forced administration was carried out orally using a disposable syringe barrel and a rat stomach probe. In Test Group 4, intramuscular administration was carried out uniformly at four places within the muscle along the sciatic nerve in the femoral portion of the left leg. For subcutaneous administration in test Group 5, the animals were ether anesthetized, and subcutaneous administration was carried out in the dorsal region using a disposable syringe barrel and a disposable 25 G syringe needle. The volume of solution administered was computed based on the latest body weight.
# The rat body weights were measured before test substance administration and 14 weeks after the start of test substance administration.
# [4] = Test Group 6: 10 mg/kg oral twice daily 42 days
# [5] = Test Group 7: solvent 8 days, then 10 mg/kg oral twice daily 34 days
compound,measurement,setting,value
"O=C(O)COc1cccc2c1CCC=C2CCO/N=C(\c1ccccc1)c1cccnc1 [present drug, ({5-[2-({[(1E)-phenyl(pyridin-3-yl)methylene]amino}oxy)ethyl]-7,8-dihydronaphthalen-1-yl}oxy)acetic acid]","Distance traveled until rat reaches platform, AUC for Days 1 to 4 (average)",[1]; [4],3932.8 ± 1115.1
same,Goal latency (seconds) Acquisition trials Day 1 (average),[1]; [4],71.8 ± 18.3 s
same,Goal latency (seconds) Acquisition trials Day 2 (average),[1]; [4],58.8 ± 22.1 s
same,Goal latency (seconds) Acquisition trials Day 3 (average),[1]; [4],41.3 ± 28.8 s
same,Goal latency (seconds) Acquisition trials Day 4 (average),[1]; [4],33.9 ± 23.2 s
same,Goal latency (seconds) Acquisition trials Trials 1 to 8 (average),[1]; [4],51.5 ± 11.9 s
same,"Goal latency, AUC for Days 1 to 4 (average)",[1]; [4],152.9 ± 42.7
same,goal latency (seconds) and distance traveled relative to the solvent control group (Test Group 5),[1]; Test Group 6: oral 10 mg/kg twice daily,significant shortening
same,goal latency (seconds) and distance traveled relative to the solvent control group (Test Group 5),"[1]; Test Group 7: medium up to day 8, oral 10 mg/kg twice daily from day 9",significant shortening
same,"Distance traveled until rat reaches platform, AUC for Days 1 to 4 (average)",[1]; [5],3850.5 ± 832.5
same,Goal latency (seconds) Acquisition trials Day 1 (average),[1]; [5],73.8 ± 15.2 s
same,Goal latency (seconds) Acquisition trials Day 2 (average),[1]; [5],55.4 ± 29.6 s
same,Goal latency (seconds) Acquisition trials Day 3 (average),[1]; [5],41.7 ± 26.7 s
same,Goal latency (seconds) Acquisition trials Day 4 (average),[1]; [5],25.8 ± 15.2 s
same,Goal latency (seconds) Acquisition trials Trials 1 to 8 (average),[1]; [5],49.2 ± 10.1 s
same,"Goal latency, AUC for Days 1 to 4 (average)",[1]; [5],146.9 ± 40.5
same,Total excretion (mg/24 hrs) Creatinine,[2],116.76 ± 58.15 mg/24 hrs
same,Total excretion (mg/24 hrs) Total protein,[2],245.7 ± 231.9 mg/24 hrs
same,Body weight (g) 0 weeks,[3],219.1 ± 12.2 g
same,body weight relative to Test Group 2,[3]; week 14,significant weight decreased
